Experimental findings from patent publication US4552882A, “7-(1-Pyrrolyl) derivatives of 1-ethyl-1,4-dihydro-4-oxoquinoline-3-carboxylic acids and 1-ethyl-1,4-dihydro-4-oxo-1,8-naphthyridine-3-carboxylic acids and their use as antimicrobial agents” (Provesan, SA, priority 1983, dated 1985) are described below.

By MIC is commonly meant the lowest concentration found to suppress growth. High values mean a need for much substance, low ones inhibition by little substance.

Assay in all cases: MIC in vitro
The test system of assay [1] is Staphylococcus aureus ATCC 25178. In kind it is cell-based. Particulars: ATCC25178, Dextrose agar, 37° C., 20 hours. On the procedure:
(§1) (G. L. Daquet and Y. A. Chabbect, Techniques en bacteriologie (Bacteriological techniques), vol. 3, Flammarion Medecine Sciences, Paris, 1972 and W. B. Hugo and A. D. Rusell, Pharmaceutical Microbiology, Blackwell Scientific Publications, London, (1977)). Antibiotic medium no. 1 (seed agar) (Oxoid CM 327) Tryptone-soya broth (Oxoid CM 129) Ringer's physiological solution 1/4 (oxoid BR 52) Dextrose agar (BBL-11165) 0.1 N NaOH "Staphylococcus aureus" ATCC 25178 Each of the microorganisms is seeded by streaking in tubes of Antibiotic medium No. 1 (seed agar), which are then incubated at 37° C. for 20 hours. Using a culture loop, the cultures are then seeded in tryptone-soyabroth and incubated at 37° C. for 20 hours. The culture obtained is diluted to 1/4 with Ringer's physiological solution, so as to obtain a standardized suspension of 10^7 -10^9 cfu/ml for each organism. Starting from a solution of 1,000 μg/ml in 0.1 N NaOH, each product is diluted in Dextrose agar (previously melted and maintained at 50° C.), with successive dilutions so as to obtain the following concentrations: 64--32--16--8--4--2--1--0.5--0.25--0.125 μg of derivative/ml medium. For each product, the solution of each concentration is subsequently distributed into Petri dishes 10 cm in diameter, with 10 ml of medium per dish and the same number of dishes as microorganisms to be tested. As soon as the medium has cooled, the dishes are seeded with the inoculations using 0.4 ml of inoculation per dish. They are spread with a Driglasky loop and the supernatant is removed. The seeded dishes are incubated at 37° C. for 20 hours.

For assay [2], the system named is Klebsiella pneumoniae ATCC 10031. Type of assay: cell-based. Particulars: ATCC10031, Dextrose agar, 37° C., 20 hours. Here is the method: as §1, with “"Klebsiella pneumoniae"” for “"Staphylococcus aureus"”, “10031” for “25178”
Assay [3] concerns Pseudomonas aeroginosa ADSA 47. Type of assay: cell-based, Pseudomonas aeruginosa. Particulars: ADSA47, Dextrose agar, 37° C., 20 hours. Here is the method:
as §1, with “"Pseudomonas aeruginosa" ADSA 47” for “"Staphylococcus aureus" ATCC 25178”

Each structure is given as a SMILES string. Values after ≈ are worked out from the molar mass of the structure shown.

For `CCn1cc(C(=O)O)c(=O)c2ccc(-n3cccc3)cc21` [Example 1, 7-(1-pyrrolyl)-1-ethyl-1,4-dihydro-4-oxo-3-quinolinecarboxylic acid], the MIC in assay [1] is 1 µg/mL (≈ 3.54 µM); in assay [2], 1 µg/mL (≈ 3.54 µM); in assay [3], greater than 64 µg/mL.

On to `CCn1cc(C(=O)O)c(=O)c2ccc(-n3cccc3)nc21` [Example 3, 1-ethyl-1,4-dihydro-4-oxo-7-(1-pyrrolyl)-1,8-naphthyridine-3-carboxylic acid], for which the MIC in assay [1] is 4 µg/mL (≈ 14.1 µM); in assay [2], 4 µg/mL (≈ 14.1 µM); in assay [3], greater than 64 µg/mL.

`CCn1cc(C(=O)O)c(=O)c2cc(F)c(-n3cccc3)nc21` [Example 4, 1-ethyl-1,4-dihydro-4-oxo-6-fluoro-7-(1-pyrrolyl)-1,8-naphthyridine-3-carboxylic acid]: the figures for the MIC in assay [1], in assay [2] and in assay [3] were 0.5 µg/mL (≈ 1.66 µM), 1 µg/mL (≈ 3.32 µM) and greater than 64 µg/mL, respectively.

For the molecule `CCn1cc(C(=O)O)c(=O)c2cc(F)c(-n3cccc3)cc21` [Example 2, 6-fluoro-7-(1-pyrrolyl)-1-ethyl-1,4-dihydro-4-oxo-3-quinolinecarboxylic acid], the MIC in assay [1] was found to be 0.25 µg/mL (≈ 0.833 µM); in assay [2] it was 0.5 µg/mL (≈ 1.67 µM); in assay [3] it was 64 µg/mL (≈ 213 µM).

Take `CCn1cc(C(=O)O)c(=O)c2cnc(N3CCNCC3)nc21` [Pipemidic acid, reference compound]: the MIC in assay [1] was determined as 64 µg/mL (≈ 211 µM); in assay [2], 2 µg/mL (≈ 6.59 µM); in assay [3] it was 32 µg/mL (≈ 105 µM).
